In patent US9833423B2 (KOREA RESEARCH INSTITUTE OF CHEMICAL TECHNOLOGY, priority 2011, dated 2017):
Values after ≈ are worked out from the molar mass of the structure shown. Read-outs that look alike come from different tables or passages of the source.

What was measured:
Polio-virus 3 = test: microbe, parasite or virus in culture; assay type: cell-based, Poliovirus 3; conditions: Enterovirus C, HeLa37, 48 h, read-out: Polio-virus 3 EC50
in vitro = conditions: human
Coxsackie-virus B3 = test: Cytopathic effect (CPE) inhibition assay; assay type: cell-based, Coxsackievirus B3; conditions: Enterovirus B, HeLa37, 48 h
Coxsackie-virus B1 = test: Cytopathic effect (CPE) inhibition assay; assay type: cell-based, Coxsackievirus B1; conditions: Enterovirus B, HeLa37, 48 h
Entero-virus 70 = test: Cytopathic effect (CPE) inhibition assay; assay type: cell-based, Enterovirus 70; conditions: Enterovirus D, MRC5, 48 h; Table 3; MRC-5, 37° C., 2 days
[1] = Cytotoxicity (CC50) in mock-infected cells, MTT assay, Experimental Example 1; conditions: human
Coxsackie-virus A24 (HG) = test: Cytopathic effect (CPE) inhibition assay; assay type: cell-based, Coxsackievirus A24; conditions: Enterovirus C, MRC5, 48 h; Table 3; MRC-5, 37° C., 2 days
[2] = in vivo, cited from earlier work
[3] = Table 4, HeLa, 37° C., 2 days, read-out: Coxsackie-virus B3 EC50
[4] = Table 4, HeLa, 37° C., 2 days, read-out: Coxsackie-virus B1 EC50
[5] = read-out: Coxsackie-virus B3 EC50
[6] = read-out: Coxsackie-virus B1 EC50
[7] = Table 3, HeLa, 37° C., 2 days, read-out: EC50 Coxsackie-virus B3
[8] = Table 3, HeLa, 37° C., 2 days, read-out: EC50 Coxsackie-virus B1

Structure (SMILES)	CC50 (in vitro; Picorna-virus CC50) [µg/mL]	EC50 (Coxsackie-virus B3; [3]) [µg/mL]	EC50 (Coxsackie-virus B1; [4]) [µg/mL]	also measured
CCCCOC(=O)Oc1cc(C(C)C)ccc1C1(NC(C)=O)C(=O)c2cccc(N)c2C1=O (centres unmarked) [Example 96, 2-(2-Acetamido-4-amino-1,3-dioxo-2,3-dihydro-1H-inden-2-yl)-5-isopropylphenyl butyl carbonate2-(2-acetamido-4-amino-1,3-dioxo-2,3-dihydro-1H-inden-2-yl)-5-isopropylphenyl butyl carbonate]	48.9 (≈ 108 µM)	< 0.01	< 0.01	EC50 (Polio-virus 3): 0.03 µg/mL (≈ 0.0663 µM)
CC(=O)Oc1cc(Cl)ccc1C1(OC(C)=O)C(=O)c2ccccc2C1=O [Example 3, 2-(2-Acetoxy-1,3-dioxo-2,3-dihydro-1H-inden-2-yl)-5-chlorophenyl acetate]				CC50 (in vitro; CC50): 50.7 µg/mL; EC50 (Entero-virus 70): 0.013 µg/mL; melting point: 148 to 150 °C
CC(=O)NC1(c2ccc(C(C)C)cc2OC(=O)N(C)C)C(=O)c2cccc(N)c2C1=O (centres unmarked) [Example 100, 2-(2-Acetamido-4-amino-1,3-dioxo-2,3-dihydro-1H-inden-2-yl)-5-isopropylphenyl dimethylcarbamate]				EC50 (Coxsackie-virus B3; [5]): < 0.01 µg/mL; EC50 (Coxsackie-virus B1; [6]): < 0.01 µg/mL; CC50 [1]: > 100 µg/mL
CCc1ccc(C2(OC(C)=O)C(=O)c3ccccc3C2=O)c(OC(C)=O)c1 [Example 6, 2-(2-Acetoxy-1,3-dioxo-2,3-dihydro-1H-inden-2-yl)-5-ethylphenyl acetate]				CC50 (in vitro; CC50): 23.5 µg/mL; EC50 (Coxsackie-virus B3; [7]): 0.035 µg/mL; EC50 (Entero-virus 70): < 0.01 µg/mL; EC50 (Coxsackie-virus B1; [8]): < 0.01 µg/mL; melting point: 136 to 137 °C
CC(=O)Oc1cc(C)c(C)cc1C1(OC(C)=O)C(=O)c2ccccc2C1=O [Example 2, 2-(2-Acetoxy-1,3-dioxo-2,3-dihydro-1H-inden-2-yl)-4,5-dimethylphenyl acetate]				CC50 (in vitro; CC50): > 100 µg/mL; EC50 (Entero-virus 70): < 1 µg/mL; melting point: 206 to 207 °C
CC(C)C(=O)Nc1cc(C(C)C)ccc1C1(O)C(=O)c2ccccc2C1=O [Example 95, N-(2-(2-Hydroxy-1,3-dioxo-2,3-dihydro-1H-inden-2-yl)-5-isopropylphenyl)isobutyramide]	27.4 (≈ 75.1 µM)	< 0.01	< 0.01	
CCCCCC(=O)NC1(c2ccc(C(C)C)cc2OC(=O)CCCCC)C(=O)c2cccc(N)c2C1=O (centres unmarked) [Example 82, 2-(4-Amino-2-hexanamido-1,3-dioxo-2,3-dihydro-1H-inden-2-yl)-5-isopropylphenyl hexanoate]	> 100	< 0.02	< 0.01	EC50 (Polio-virus 3): 0.015 µg/mL (≈ 0.0296 µM)
COC(=O)NC1(c2ccc(C(C)C)cc2OC(=O)OC)C(=O)c2ccccc2C1=O [Example 48, Methyl 2-(4-isopropyl-2(methoxycarbonyloxy)phenyl)-1,3-dioxo-2,3-dihydro-1H-inden-2-yl carbamate]				CC50 (in vitro; CC50): 46.7 µg/mL (≈ 114 µM); EC50 (Coxsackie-virus B3; [7]): < 0.01 µg/mL; EC50 (Coxsackie-virus B1; [8]): < 0.01 µg/mL
CCC(=O)NC1(c2ccc(C(C)C)cc2OC(=O)CC)C(=O)c2ccccc2C1=O [Example 68, 2-(1,3-Dioxo-2-propionamido-2,3-dihydro-1H-inden-2-yl)-5-isopropylphenyl propionate]				EC50 (Coxsackie-virus A24 (HG)): < 1 µg/mL; CC50 (in vitro; CC50): 66 µg/mL (≈ 162 µM); EC50 (Coxsackie-virus B3; [7]): < 0.01 µg/mL; EC50 (Coxsackie-virus B1; [8]): < 0.01 µg/mL; melting point: 173 to 175 °C
CC(C)c1ccc(C2(OC(=O)N(C)C)C(=O)c3ccccc3C2=O)c(OC(=O)N(C)C)c1 [Example 31, Dimethyl-carbamic acid 2-(2-dimethylcarbamoyloxy-1,3-dioxo-indan-2-yl)-5-isopropyl-phenyl ester]				CC50 [1]: > 100 µg/mL; melting point: 203 to 205 °C
CCOC(=O)N(C(C)=O)C1(c2ccc(C(C)C)cc2O)C(=O)c2ccccc2C1=O [Example 102, Ethyl acetyl(2-(2-hydroxy-4-isopropylphenyl)-1,3-dioxo-2,3-dihydro-1H-inden-2-yl)carbamate]	42.5 (≈ 104 µM)	< 0.01	< 0.01	
CCCCC(=O)NC1(c2ccc(C(C)C)cc2OC(=O)CCCC)C(=O)c2cccc(N)c2C1=O (centres unmarked) [Example 81, 2-(4-amino-1,3-dioxo-2-pentanamido-2,3-dihydro-1H-inden-2-yl)-5-isopropylphenyl pentanoate]	41.3 (≈ 86.2 µM)	< 0.01	< 0.01	EC50 (Polio-virus 3): 0.012 µg/mL (≈ 0.0251 µM)
CCC(=O)NC1(c2ccc(C(C)C)cc2OC(=O)CC)C(=O)c2cccc(N)c2C1=O (centres unmarked) [Example 84, 2-(4-Amino-1,3-dioxo-2-propionamido-2,3-dihydro-1H-inden-2-yl)-5-isopropylphenyl propionate]	> 100	< 0.01	< 0.01	
CCNC(=O)Oc1cc(C(C)C)ccc1C1(NC(C)=O)C(=O)c2cccc(N)c2C1=O (centres unmarked) [Example 103, 2-(2-Acetamido-4-amino-1,3-dioxo-2,3-dihydro-1H-inden-2-yl)-5-isopropylphenyl ethylcarbamate]	26.3 (≈ 62 µM)	< 0.01	< 0.01	EC50 (Polio-virus 3): 0.013 µg/mL (≈ 0.0307 µM)
CCC(=O)C(CCCCCCOc1ccc(OC)cc1Cl)C(=O)CC [arildone]				bioavailability [2]: low
CC(=O)NC1(c2ccc(C(C)C)cc2OC(=O)Oc2ccccc2)C(=O)c2ccccc2C1=O [Example 99, Carbonic acid 2-(2-acetylamino-1,3-dioxo-indan-2-yl)-5-isopropyl-phenyl ester phenyl ester]	38.1 (≈ 83.2 µM)	< 0.01	< 0.01	
CCCCC(=O)NC1(c2ccc(C(C)C)cc2OC(=O)C(C)(C)C)C(=O)c2ccccc2C1=O [Example 80, 2,2-Dimethyl-propionic acid 2-(1,3-dioxo-2-pentanoylamino-indan-2-yl)-5-isopropyl-phenyl ester]	> 100	< 0.01	< 0.01	
CCCCCCC(=O)NC1(c2ccc(C(C)C)cc2OC(=O)CCCCCC)C(=O)c2cccc(N)c2C1=O (centres unmarked) [Example 83, 2-(4-Amino-2-heptanamido-1,3-dioxo-2,3-dihydro-1H-inden-2-yl)-5-isopropylphenyl heptanoate]	> 100	< 0.01	< 0.01	
CC(=O)NC1(c2ccc(C(C)C)cc2OC(=O)N(C)C)C(=O)c2ccccc2C1=O [Example 98, Dimethyl-carbamic acid 2-(2-acetylamino-1,3-dioxo-indan-2-yl)-5-isopropyl-phenyl ester]				EC50 (Coxsackie-virus B1; [6]): 0.013 µg/mL (≈ 0.0318 µM); CC50 [1]: > 100 µg/mL
CCCC(=O)NC1(c2ccc(C(C)C)cc2OC(=O)CCC)C(=O)c2ccccc2C1=O [Example 76, Butyric acid 2-(2-butyrylamino-1,3-dioxo-indan-2-yl)-5-isopropyl-phenyl ester]	45.1 (≈ 104 µM)	< 0.04	< 0.01	
CCCCCC(=O)NC1(c2ccc(C(C)C)cc2OC(=O)CCCCC)C(=O)c2ccccc2C1=O [Example 78, Hexanoic acid 2-(2-hexanoylamino-1,3-dioxo-indan-2-yl)-5-isopropyl-phenyl ester]	68.2 (≈ 139 µM)	< 0.01	< 0.01	
Cc1cc(CCCOc2c(C)cc(-c3noc(C(F)(F)F)n3)cc2C)on1 [Pleconaril]				oral bioavailability ([2]; po): very good
CCCCC(=O)Oc1cc(C(C)C)ccc1C1(NC(C)=O)C(=O)c2ccccc2C1=O [Example 93, 2-(2-Acetamido-1,3-dioxo-2,3-dihydro-1H-inden-2-yl)-5-isopropylphenyl pentanoate]	35.2 (≈ 83.5 µM)	< 0.01	< 0.01	
CCOC(=O)Oc1cc(C(C)C)ccc1C1(NC(C)=O)C(=O)c2ccccc2C1=O [Example 101, 2-(2-Acetamido-1,3-dioxo-2,3-dihydro-1H-inden-2-yl)-5-isopropylphenyl ethyl carbonate]	46 (≈ 112 µM)	< 0.01	< 0.01	
CC(=O)Nc1ccc([N+](=O)[O-])c2c1C(=O)C(O)(c1cc(C)c(C)cc1NC(=O)C(C)C)C2=O (centres unmarked) [Example 94, N-(2-(4-Acetamido-2-hydroxy-7-nitro-1,3-dioxo-2,3-dihydro-1H-inden-2-yl)-4,5-dimethylphenyl)isobutyramide]	39.2 (≈ 86.4 µM)	< 0.01	< 0.01	
CCCC(=O)NC1(c2ccc(C(C)C)cc2OC(=O)CCC)C(=O)c2cccc(N)c2C1=O (centres unmarked) [Example 85, 2-(4-Amino-2-butyramido-1,3-dioxo-2,3-dihydro-1H-inden-2-yl)-5-isopropylphenyl butyrate]	45.9 (≈ 102 µM)	< 0.03	< 0.01	EC50 (Polio-virus 3): 0.015 µg/mL (≈ 0.0333 µM)
CNC(=O)Oc1cc(C(C)C)ccc1C1(NC(C)=O)C(=O)c2ccccc2C1=O [Example 97, 2-(2-Acetamido-1,3-dioxo-2,3-dihydro-1H-inden-2-yl)-5-isopropylphenyl methylcarbamate]				EC50 (Coxsackie-virus B3; [5]): < 0.01 µg/mL; EC50 (Coxsackie-virus B1; [6]): < 0.01 µg/mL; CC50 [1]: 45.1 µg/mL (≈ 114 µM)
CC(C)c1ccc(C2(NC(=O)c3ccccc3)C(=O)c3ccccc3C2=O)c(OC(=O)c2ccccc2)c1 [Example 70, 2-(2-Benzamido-1,3-dioxo-2,3-dihydro-1H-inden-2-yl)-5-isopropylphenyl benzoate]				EC50 (Coxsackie-virus A24 (HG)): < 1 µg/mL; CC50 (in vitro; CC50): > 117 µg/mL; EC50 (Coxsackie-virus B3; [7]): < 0.01 µg/mL; EC50 (Coxsackie-virus B1; [8]): < 0.01 µg/mL; melting point: 138 to 140 °C
